Measured values: US12590062B2, “PD-1/PD-L1 inhibitors” (Gilead Sciences, Inc., priority 2017, dated 2026)

Key:
PD-1/PD-L1 interaction = molecular target: T1, PD-1/PD-L1 interaction (Homo sapiens, UniProt Q9NZQ7); assay: PD-1/PD-L1 NFAT reporter co-culture assay; assay type: cell-based; details: Jurkat PD-1 NFAT-luciferase cells co-cultured with aAPC-PD-L1 CHO cells, 6 hrs at 37° C.; read-out: EC50 NFAT Luciferase
T1 construct: expressed in transfected cells; host or cells: CHO cells (aAPC-PD-L1) co-cultured with Jurkat cells overexpressing PD-1 and an NFAT-luciferase reporter
T1 sequence (Q9NZQ7 19-290): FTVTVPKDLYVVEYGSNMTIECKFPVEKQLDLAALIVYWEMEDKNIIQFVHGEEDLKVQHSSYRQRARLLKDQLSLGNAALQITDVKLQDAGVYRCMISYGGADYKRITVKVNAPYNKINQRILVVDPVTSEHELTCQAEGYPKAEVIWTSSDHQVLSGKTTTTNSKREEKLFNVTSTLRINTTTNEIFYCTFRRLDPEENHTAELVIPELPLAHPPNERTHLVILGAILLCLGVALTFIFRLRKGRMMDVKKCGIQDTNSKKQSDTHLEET
How it was run: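 Restoration of TCR-driven NFAT luciferase signal: 6 h, 37 °C co-culture of PD-1 Jurkat reporter cells (pre-mixed with compound) on overnight-seeded PD-L1/anti-CD3 CHO monolayer. ONE-Glo luminescence; dose-response fitted to four-parameter equation for EC50.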

[1] = molecular target: T2, interaction between the recombinant extracellular domain (ECD) of PD-1 and native cell-bound PD-L1 (Homo sapiens, UniProt Q9NZQ7); assay: CHO/PD-L1 cell capture assay; assay type: cell-based; details: CHO cells overexpressing PD-L1, pre-incubated 1 hr with compound, captured on biotinylated Fc-PD-1 coated plates, 75 min at room temperature
T2 construct: expressed in transfected cells
T2 sequence (Q9NZQ7 19-290): as above
Method: EC50-CHO/PD-L1-Capture Assay:
Compounds were tested in a cell capture assay to determine if they can specifically block the interaction between the recombinant extracellular domain (ECD) of PD-1 and native cell-bound PD-L1. Binding affinity of stable CHO cells overexpressing PD-L1 with its cognate recombinant ligand coated on plates was measured by counting the number of ‘captured’ cells. High-capacity streptavidin- coated plates were incubated with biotylated-Fc-PD-1 for 2 hours in PBS. Unbound ligand was washed out. CHO-PD-L1 cells (resuspended in PBS pH 7.4, 0.5 mM EDTA, and 2% bovine serum albumin) were pre-incubated for 1 hr with compound, dispensed into each PD-1 ECD coated well and then incubated for 75 min at room temperature. To stop the capture assay, a fixative/staining solution (final concentrations are 1.3% glutaraldehyde and 1.67 μM Draq5) was gently added to the cells and incubated for 2 hrs at room temperature. Unbound cells were then washed out and ‘captured’ cells were enumerated using a high-content microscopy system. EC50 values were calculated from the fit of the dose-response curves to a four-parameter equation. Representative data are shown below in Table 2.

PD-L1 = molecular target: T3, PD-L1 (Homo sapiens, UniProt Q9NZQ7); assay: PD-L1/PD-L1 dimerization biochemical protein-protein interaction assay (ALPHA); assay type: binding; details: compound-induced PD-L1 dimerization, head prints '1 nM' (0.5 nM His-tagged PD-L1 and 0.5 nM FLAG-tagged PD-L1), read-out: AC50 PDL1 Dimer Alpha 1 nM
T3 construct: determine if they can specifically dimerize the extracellular domains of PD-L1
T3 sequence (Q9NZQ7 19-238 limits assumed): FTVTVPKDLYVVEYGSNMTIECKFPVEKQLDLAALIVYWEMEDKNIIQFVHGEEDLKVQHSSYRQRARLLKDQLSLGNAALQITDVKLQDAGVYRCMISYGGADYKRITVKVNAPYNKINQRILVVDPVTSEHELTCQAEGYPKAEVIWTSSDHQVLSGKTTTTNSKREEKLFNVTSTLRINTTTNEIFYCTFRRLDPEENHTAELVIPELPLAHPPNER
T3 sequence (Q9NZQ7 19-238 limits assumed): as above
How it was run: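 After 2 h at 25 °C with compound, His- and FLAG-tagged PD-L1 ECDs (each 0.5 nM final; 25 mM Hepes pH 7.4, 150 mM NaCl) were detected by sequential anti-His acceptor and anti-FLAG donor bead incubations. Dose-response curves fitted to four-parameter equation for AC50.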

PD-1/PD-L1 = PD-1/PD-L1 (Homo sapiens, UniProt Q9NZQ7); assay: PD-1/PD-L1 biochemical protein-protein interaction assay (ALPHA); assay type: binding; details: 0.3 nM His tagged PD-L1, 2.5 nM biotinylated Fc-PD-1, 60 minutes at 25° C., read-out: IC50 PD-L1-PD-1 Alpha IC50-mono PD-L1-fcP-D1
Sequence of PD-1/PD-L1 (Q9NZQ7 19-238 limits assumed): as above
How it was run: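 Compound blockade of the PD-1/PD-L1 extracellular-domain interaction measured as reduced ALPHA signal after 60 min at 25 °C, pH 7.4 Hepes buffer with EDTA, Tween 20 and BSA. Final proteins: His-tagged PD-L1 0.3 nM, biotinylated Fc-PD-1 2.5 nM; four-parameter curve fit gives IC50.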

SMILES: COc1nc(O[C@H]2CCc3c(-c4cccc5c4CC[C@@H]5Oc4nc(OC)c(CNCC(=O)O)cc4Cl)cccc32)ccc1CNCC(=O)O [Example 1, ((6-(((1S,1′S)-1′-((5-(((carboxymethyl)amino)methyl)-3-chloro-6-methoxypyridin-2-yl)oxy)-2,2′,3,3′-tetrahydro-1H,1′H-[4,4′-biinden]-1-yl)oxy)-2-methoxypyridin-3-yl)methyl)glycine]
- EC50 (PD-1/PD-L1 interaction): 516 nM
- EC50 [1]: 382 nM

SMILES: COc1nc(O[C@H]2CCc3c(-c4cccc5c4CC[C@@H]5Oc4nc(OC)c(CNCC(=O)O)cc4Cl)cccc32)c(Cl)cc1CNCC(=O)O [Example 2, 2,2′-((((((1S,1′S)-2,2′,3,3′-tetrahydro-1H,1′H-[4,4′-biindene]-1,1′-diyl)bis(oxy))bis(5-chloro-2-methoxypyridine-6,3-diyl))bis(methylene))bis(azanediyl))diacetic acid]
- EC50 (PD-1/PD-L1 interaction): 456 nM
- EC50 [1]: 1270 nM

SMILES: COc1nc(O[C@H]2CCc3c(-c4cccc5c4CC[C@@H]5Oc4nc(OC)c(CNC[C@@H](O)CC(=O)O)cc4Br)cccc32)c(Br)cc1CNCCO [Example 8, (S)-4-(((5-bromo-6-(((1S,1′S)-1′-((3-bromo-5-(((2-hydroxyethyl)amino)methyl)-6-methoxypyridin-2-yl)oxy)-2,2′,3,3′-tetrahydro-1H,1′H-[4,4′-biinden]-1-yl)oxy)-2-methoxypyridin-3-yl)methyl)amino)-3-hydroxybutanoic acid]
- EC50 (PD-1/PD-L1 interaction): 290 nM
- EC50 [1]: 79.7 nM

SMILES: COc1nc(O[C@H]2CCc3c(-c4cccc5c4CC[C@@H]5Oc4nc(OC)c(CNCCO)cc4Br)cccc32)c(Br)cc1CNCCO [Example 10, 2,2′-((((((1S,1′S)-2,2′,3,3′-tetrahydro-1H,1′H-[4,4′-biindene]-1,1′-diyl)bis(oxy))bis(5-bromo-2-methoxypyridine-6,3-diyl))bis(methylene))bis(azanediyl))bis(ethan-1-ol)]
- EC50 (PD-1/PD-L1 interaction): 502 nM
- EC50 [1]: 185 nM

SMILES: Cc1c(COc2cc(OCc3cncc(C#N)c3)c(CNC[C@@H](O)CC(=O)O)cc2Cl)cccc1-c1cccc(-c2ccc3cc(CNC[C@@H](O)CC(=O)O)ccc3c2)c1C [Example 31, (S)-4-(((6-(3′-((4-((((S)-3-carboxy-2-hydroxypropyl)amino)methyl)-2-chloro-5-((5-cyanopyridin-3-yl)methoxy)phenoxy)methyl)-2,2′-dimethyl-[1,1′-biphenyl]-3-yl)naphthalen-2-yl)methyl)amino)-3-hydroxybutanoic acid]
- EC50 (PD-1/PD-L1 interaction): 687 nM
- EC50 [1]: 30.1 nM

SMILES: COc1nc(OCc2cccc(-c3cccc(COc4nc(OC)c(CN[C@@](C)(CO)C(=O)O)cc4Br)c3C)c2C)c(Br)cc1CN[C@@](C)(CO)C(=O)O [Example 45, (2S,2′S)-2,2′-((((((2,2′-dimethyl-[1,1′-biphenyl]-3,3′-diyl)bis(methylene))bis(oxy))bis(5-bromo-2-methoxypyridine-6,3-diyl))bis(methylene))bis(azanediyl))bis(3-hydroxy-2-methylpropanoic acid)]
- EC50 (PD-1/PD-L1 interaction): 75 nM
- EC50 [1]: 166 nM

SMILES: COc1nc(OCc2cccc(-c3cccc(COc4nc(OC)c(CN5CC[C@@H](O)C[C@H]5C(=O)O)cc4Cl)c3C)c2C)c(Cl)cc1CN1CC[C@@H](O)C[C@H]1C(=O)O [Example 47, (2S,2′S,4R,4′R)-1,1′-(((((2,2′-dimethyl-[1,1′-biphenyl]-3,3′-diyl)bis(methylene))bis(oxy))bis(5-chloro-2-methoxypyridine-6,3-diyl))bis(methylene))bis(4-hydroxypiperidine-2-carboxylic acid)]
- EC50 (PD-1/PD-L1 interaction): 503 nM
- EC50 [1]: 226 nM

SMILES: COc1nc(OCc2cccc(-c3cccc(COc4nc(OC)c(CN5C[C@@H](O)C[C@H]5C(=O)O)cc4Cl)c3C)c2C)c(Cl)cc1CN1C[C@@H](O)C[C@H]1C(=O)O [Example 48, (2S,2′S,4S,4'S)-1,1′-(((((2,2′-dimethyl-[1,1′-biphenyl]-3,3′-diyl)bis(methylene))bis(oxy))bis(5-chloro-2-methoxypyridine-6,3-diyl))bis(methylene))bis(4-hydroxypyrrolidine-2-carboxylic acid)]
- EC50 (PD-1/PD-L1 interaction): 412 nM
- EC50 [1]: 298 nM

SMILES: COc1nc(OCc2cccc(-c3cccc(COc4nc(OC)c(CNC[C@H](O)CC(=O)O)cc4Cl)c3C)c2C)c(Cl)cc1CNC[C@H](O)CC(=O)O [Example 49, (3R,3′R)-4,4′-((((((2,2′-dimethyl-[1,1′-biphenyl]-3,3′-diyl)bis(methylene))bis(oxy))bis(5-chloro-2-methoxypyridine-6,3-diyl))bis(methylene))bis(azanediyl))bis(3-hydroxybutanoic acid)]
- EC50 (PD-1/PD-L1 interaction): 274 nM
- EC50 [1]: 124 nM

SMILES: COc1nc(OCc2cccc(-c3cccc(COc4nc(OC)c(CNC[C@H](O)CC(=O)O)cc4C4CC4)c3C)c2C)c(C2CC2)cc1CNC[C@H](O)CC(=O)O [Example 54, (3R,3′R)-4,4′-((((((2,2′-dimethyl-[1,1′-biphenyl]-3,3′-diyl)bis(methylene))bis(oxy))bis(5-cyclopropyl-2-methoxypyridine-6,3-diyl))bis(methylene))bis(azanediyl))bis(3-hydroxybutanoic acid)]
- EC50 (PD-1/PD-L1 interaction): 997 nM
- EC50 [1]: 233 nM

SMILES: COc1nc(OCc2cccc(-c3cccc(COc4nc(OC)c(CNC[C@@H](O)CC(=O)O)cc4C4CC4)c3C)c2C)c(C2CC2)cc1CNC[C@@H](O)CC(=O)O [Example 55, (3S,3′S)-4,4′-((((((2,2′-dimethyl-[1,1′-biphenyl]-3,3′-diyl)bis(methylene))bis(oxy))bis(5-cyclopropyl-2-methoxypyridine-6,3-diyl))bis(methylene))bis(azanediyl))bis(3-hydroxybutanoic acid)]
- EC50 (PD-1/PD-L1 interaction): 1520 nM
- EC50 [1]: 315 nM

SMILES: COc1nc(OCc2cccc(-c3cccc(COc4nc(OC)c(CN(C)CC(=O)O)cc4Cl)c3C)c2C)c(Cl)cc1CN(C)CC(=O)O [Example 76, 2,2′-((((((2,2′-dimethyl-[1,1′-biphenyl]-3,3′-diyl)bis(methylene))bis(oxy))bis(5-chloro-2-methoxypyridine-6,3-diyl))bis(methylene))bis(methylazanediyl))diacetic acid]
- EC50 (PD-1/PD-L1 interaction): 1060 nM
- EC50 [1]: 83.2 nM

SMILES: COc1cc(O[C@H]2CCc3c(-c4cccc(-c5ccc(CN6CC7(CCC(=O)N7)C6)c(OC)n5)c4Cl)cccc32)c(Cl)cc1CNC[C@@H]1CCC(=O)N1 [Example 796]
- AC50 (PD-L1): 228 nM
- EC50 (PD-1/PD-L1 interaction): 151 nM
- IC50 (PD-1/PD-L1): 0.762 nM

SMILES: COc1nc(-c2cccc(-c3cccc4c3CC[C@@H]4Oc3nc(OCc4cc(C#N)cc(C#N)c4)c(CNC[C@@H](O)CC(=O)O)cc3Cl)c2Cl)ccc1CNC[C@@H]1CCC(=O)N1 [Example 797]
- AC50 (PD-L1): 41.4 nM
- EC50 (PD-1/PD-L1 interaction): 30 nM
- IC50 (PD-1/PD-L1): 0.064 nM

SMILES: COc1cc(-c2cccc(-c3cccc4c3CC[C@@H]4Oc3nc(OC)c(CNC[C@@H]4CCC(=O)N4)cc3Cl)c2Cl)nc(Cl)c1CNC[C@@H]1CCC(=O)N1 [Example 799]
- AC50 (PD-L1): 150 nM
- EC50 (PD-1/PD-L1 interaction): 167 nM
- IC50 (PD-1/PD-L1): 0.341 nM

SMILES: COc1nc(-c2cc(F)cc(-c3cccc4c3CC[C@@H]4Oc3ccc(CNC[C@@H]4CCC(=O)N4)c(OCc4cncc(C#N)c4)n3)c2Cl)ccc1CNC[C@@H]1CCC(=O)N1 [Example 800]
- AC50 (PD-L1): 537 nM
- EC50 (PD-1/PD-L1 interaction): 246 nM
- IC50 (PD-1/PD-L1): 1.29 nM

SMILES: N#Cc1cncc(COc2cc(O[C@H]3CCc4c(-c5cccc(-c6ccc7sc(CNC[C@@H]8CCC(=O)N8)nc7c6)c5Cl)cccc43)c(Cl)cc2CNC[C@@H]2CCC(=O)N2)c1 [Example 801]
- AC50 (PD-L1): ≥ 10000 nM
- EC50 (PD-1/PD-L1 interaction): ≥ 50000 nM
- IC50 (PD-1/PD-L1): 9.69 nM

SMILES: N#Cc1cncc(COc2cc(O[C@H]3CCc4c(-c5cccc(-c6nc7ccc(CNC[C@@H]8CCC(=O)N8)cn7n6)c5Cl)cccc43)c(Cl)cc2CNC[C@@H]2CCC(=O)N2)c1 [Example 802]
- AC50 (PD-L1): 55.5 nM
- EC50 (PD-1/PD-L1 interaction): 177 nM
- IC50 (PD-1/PD-L1): 0.084 nM

SMILES: N#Cc1cncc(COc2nc(O[C@H]3CCc4c(-c5cccc(-c6nc7ccc(CNC[C@@H](O)CC(=O)O)cn7n6)c5Cl)cccc43)c(Cl)cc2CNC[C@@H](O)CC(=O)O)c1 [Example 803]
- AC50 (PD-L1): 11.7 nM
- EC50 (PD-1/PD-L1 interaction): 49 nM
- IC50 (PD-1/PD-L1): 0.064 nM
